# According to ChEMBL document CHEMBL4609995, “Rational design, synthesis and biological profiling of new KDM4C inhibitors” (Bioorg Med Chem, 2020):
# Assays:
# [1] = target: T1, Lysine-specific demethylase 4C (Homo sapiens, UniProt Q9H3R0); test: Inhibition of KDM4C (unknown origin) using methylated H3 peptide as substrate by chemiluminescence assay
# T1 sequence (Q9H3R0 whole entry): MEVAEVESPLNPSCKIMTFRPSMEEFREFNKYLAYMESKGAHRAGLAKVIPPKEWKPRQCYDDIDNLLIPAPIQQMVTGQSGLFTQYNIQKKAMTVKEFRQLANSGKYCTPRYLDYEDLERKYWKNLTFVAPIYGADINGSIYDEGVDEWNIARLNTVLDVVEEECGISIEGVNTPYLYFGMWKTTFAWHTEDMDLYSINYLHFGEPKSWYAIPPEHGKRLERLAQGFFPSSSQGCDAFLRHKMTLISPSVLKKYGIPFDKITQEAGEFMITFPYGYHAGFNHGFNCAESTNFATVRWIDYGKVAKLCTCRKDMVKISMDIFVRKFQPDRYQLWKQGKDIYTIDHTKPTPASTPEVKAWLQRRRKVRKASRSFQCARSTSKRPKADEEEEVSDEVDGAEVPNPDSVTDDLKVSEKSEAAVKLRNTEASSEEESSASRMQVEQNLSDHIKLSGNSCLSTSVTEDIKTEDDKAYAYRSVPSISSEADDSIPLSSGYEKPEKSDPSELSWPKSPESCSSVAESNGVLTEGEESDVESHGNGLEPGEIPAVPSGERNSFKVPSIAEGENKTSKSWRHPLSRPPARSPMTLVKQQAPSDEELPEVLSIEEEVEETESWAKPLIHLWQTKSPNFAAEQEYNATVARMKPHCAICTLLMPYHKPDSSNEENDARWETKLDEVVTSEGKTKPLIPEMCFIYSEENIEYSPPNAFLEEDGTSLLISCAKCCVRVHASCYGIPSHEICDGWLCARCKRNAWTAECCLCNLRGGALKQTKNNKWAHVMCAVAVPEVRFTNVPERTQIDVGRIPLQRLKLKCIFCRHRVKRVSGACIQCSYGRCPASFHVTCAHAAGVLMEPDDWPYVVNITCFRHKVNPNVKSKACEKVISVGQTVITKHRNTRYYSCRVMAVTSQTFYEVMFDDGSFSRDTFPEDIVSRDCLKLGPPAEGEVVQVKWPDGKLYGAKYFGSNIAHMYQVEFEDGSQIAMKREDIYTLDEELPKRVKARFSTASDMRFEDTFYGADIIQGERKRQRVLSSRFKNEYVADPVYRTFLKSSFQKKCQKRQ
# [2] = target: T1, Lysine-specific demethylase 4C; test: Inhibition of KDM4C (unknown origin)
# [3] = Intrinsic clearance in mouse liver microsomes assessed per mg protein at 1 uM measured up to 60 mins in presence or absence of NADPH by LC-MS/MS analysis; assay type: ADME, Microsome; conditions: liver microsomes, read-out: CLH
# [4] = Substrate activity at P-gp in MDCK2-MDR1 cells at 10 uM incubated for 60 mins in presence or absence of 2 uM P-gp inhibitor elacridar by LC-MS/MS analysis; assay type: ADME, cell-based, Canis lupus familiaris; conditions: dog, mdck-mdr1, 1 h
# P-gp [5] = test: Efflux ratio of permeability from basolateral to apical over apical to basolateral side in MDCK2-MDR1 cells MDCK2-MDR1 cells at 10 uM incubated for 60 mins in presence 2 uM P-gp inhibitor elacridar by LC-MS/MS analysis; assay type: ADME, cell-based, Canis lupus familiaris; conditions: dog, MDCK-MDR1, with elacridar 2 uM
# A549 = test: Antiproliferative activity against human A549 cells assessed as reduction in cell growth measured after 72 hrs by Alamar blue assay; assay type: functional, cell-based; conditions: A549, 72 h
# P-gp [6] = test: Permeability across apical to basolateral side in MDCK2-MDR1 cells at 10 uM incubated for 60 mins in presence 2 uM P-gp inhibitor elacridar by LC-MS/MS analysis; assay type: ADME, cell-based, Canis lupus familiaris; conditions: dog, MDCK-MDR1, with elacridar 2 uM; read-out: permeability
# Homo sapiens = organism: Homo sapiens; test: Selectivity ratio, ratio of IC50 for KDM4A (unknown origin) to IC50 for KDM4C (unknown origin)
# HepG2 = test: Antiproliferative activity against human HepG2 cells assessed as reduction in cell growth measured after 24 hrs by MTS assay; assay type: functional, cell-based; conditions: HepG2, 24 h
# [7] = target: T2, Lysine-specific demethylase 4A (Homo sapiens, UniProt O75164); test: Inhibition of KDM4A (unknown origin)
# T2 sequence (O75164 whole entry): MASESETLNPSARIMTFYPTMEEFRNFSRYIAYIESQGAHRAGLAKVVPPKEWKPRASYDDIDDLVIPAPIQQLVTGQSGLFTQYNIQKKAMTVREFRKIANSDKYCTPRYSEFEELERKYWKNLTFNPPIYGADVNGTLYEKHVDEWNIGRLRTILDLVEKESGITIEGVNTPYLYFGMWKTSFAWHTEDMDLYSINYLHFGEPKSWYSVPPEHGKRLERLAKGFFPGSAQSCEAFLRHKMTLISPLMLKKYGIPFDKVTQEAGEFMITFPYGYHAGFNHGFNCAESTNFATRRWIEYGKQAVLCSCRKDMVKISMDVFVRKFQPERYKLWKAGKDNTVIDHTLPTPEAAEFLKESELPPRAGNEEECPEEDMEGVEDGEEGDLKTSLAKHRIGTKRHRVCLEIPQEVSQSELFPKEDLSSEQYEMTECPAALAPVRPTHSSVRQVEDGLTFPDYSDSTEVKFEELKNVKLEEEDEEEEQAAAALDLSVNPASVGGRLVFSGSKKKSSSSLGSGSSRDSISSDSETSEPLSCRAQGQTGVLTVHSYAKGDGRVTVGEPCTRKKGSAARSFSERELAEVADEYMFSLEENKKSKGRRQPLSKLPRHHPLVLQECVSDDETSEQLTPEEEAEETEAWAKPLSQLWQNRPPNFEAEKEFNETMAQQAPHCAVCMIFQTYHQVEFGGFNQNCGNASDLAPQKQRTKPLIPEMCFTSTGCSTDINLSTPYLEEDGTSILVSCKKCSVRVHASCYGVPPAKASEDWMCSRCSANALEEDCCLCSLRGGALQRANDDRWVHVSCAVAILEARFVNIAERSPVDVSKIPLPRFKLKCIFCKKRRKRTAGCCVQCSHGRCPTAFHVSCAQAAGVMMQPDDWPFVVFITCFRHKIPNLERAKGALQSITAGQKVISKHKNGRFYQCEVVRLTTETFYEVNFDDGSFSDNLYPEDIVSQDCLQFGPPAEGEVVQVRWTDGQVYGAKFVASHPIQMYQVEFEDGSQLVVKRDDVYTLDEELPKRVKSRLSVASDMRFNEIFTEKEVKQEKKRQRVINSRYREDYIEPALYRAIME
# [8] = target: T3, Lysine-specific demethylase 4C (Homo sapiens) (UniProt Q9H3R0); test: Inhibition of KDM4C (unknown origin) at 10 uM using methylated H3 peptide as substrate by chemiluminescence assay relative to control
# T3 sequence (whole entry): T1 sequence (Q9H3R0 whole entry)
SMILES,IC50 ([1]; read-out: IC50) [µM],IC50 [2] [µM],microsomal CLint at 1 µM [3] [µL/min/mg],Activity [4],"efflux ratio at 1 h, 10 µM (P-gp [5])",IC50 (A549) [µM],"Papp A→B at 1 h, 10 µM (P-gp [6]) [×10⁻⁶ cm/s]",Ratio IC50 (Homo sapiens),IC50 (HepG2) [µM],IC50 [7] [µM],inhibition [8] [%],IC50 [1]
Cn1ncnc2c(=O)n(C)c(=O)nc1-2,0.541,0.5,< 12.5,Not Active,< 2,0.022,16,5,4.5,2.5,,
Cn1nc(-c2ccc(O)cc2)nc2c(=O)n(C)c(=O)nc1-2,0.242,,< 12.5,Not Active,< 2,5.8,13.2,,1.1,,,
Cn1nc(Cc2ccccc2)nc2c(=O)n(C)c(=O)nc1-2,0.029,,< 12.5,Not Active,< 2,> 30,25.3,,5.1,,,
CN(/N=C/c1ccc(O)cc1)c1cc(=O)n(C)c(=O)[nH]1,,,,,,,,,,,40 to 70,
Cn1nc(-c2ccccc2)nc2c(=O)n(C)c(=O)nc1-2,0.13,,< 12.5,Not Active,< 2,1.1,34.7,,0.87,,,
COc1ccc(/C=N/N(C)c2cc(=O)n(C)c(=O)[nH]2)cc1,,,,,,,,,,,40 to 70,
COC(=O)C1(c2ccc(-c3nc4c(=O)n(C)c(=O)nc-4n(C)n3)cc2)CC1,,,< 12.5,Not Active,< 2,1.3,24.9,,1.2,,,Not Active
Cn1c(=O)[nH]c2ccc(-c3ccccc3)cc2c1=O,> 10,,229,Not Active,< 2,> 30,27.3,,> 25,,,
Cn1nc(-c2ccc(F)cc2)nc2c(=O)n(C)c(=O)nc1-2,0.081,,< 12.5,Not Active,< 2,1.6,30.6,,0.82,,,
Cn1nc(-c2ccc(S(N)(=O)=O)cc2)nc2c(=O)n(C)c(=O)nc1-2,0.042,,< 12.5,Not Active,< 2,> 30,0.8,,5.6,,,
